Measured values from the NIST ThermoML archive (doi:10.1021/je700176d).
± gives the expanded uncertainty stated by the source.

Conditions: 101.33 kPa, Liquid, transient hot wire

| Compound | thermal conductivity (293 K) | thermal conductivity (303 K) | thermal conductivity (313 K) | thermal conductivity (323 K) | thermal conductivity (333 K) | thermal conductivity (343 K) | thermal conductivity (353 K) |
| --- | --- | --- | --- | --- | --- | --- | --- |
| CCCCn1cc[n+](C)c1.O=S(=O)([O-])C(F)(F)F [1-butyl-3-methylimidazolium trifluoromethanesulfonate] | 0.147 ± 0.01 W/m/K | 0.146 ± 0.01 W/m/K | 0.145 ± 0.01 W/m/K | 0.144 ± 0.01 W/m/K | 0.144 ± 0.01 W/m/K | 0.143 ± 0.01 W/m/K | 0.142 ± 0.01 W/m/K |
| CCOS(=O)(=O)[O-].CCn1cc[n+](C)c1 [1-ethyl-3-methylimidazolium ethyl sulfate] | 0.182 ± 0.01 W/m/K | 0.181 ± 0.01 W/m/K | 0.181 ± 0.01 W/m/K | 0.179 ± 0.01 W/m/K | 0.179 ± 0.01 W/m/K | 0.178 ± 0.01 W/m/K | 0.177 ± 0.01 W/m/K |
| CCCCCCCCn1cc[n+](C)c1.O=S(=O)([N-]S(=O)(=O)C(F)(F)F)C(F)(F)F | 0.128 ± 0.01 W/m/K | 0.128 ± 0.01 W/m/K | 0.128 ± 0.01 W/m/K | 0.126 ± 0.01 W/m/K | 0.126 ± 0.01 W/m/K | 0.125 ± 0.01 W/m/K | 0.126 ± 0.01 W/m/K |
| CCCC[N+]1(C)CCCC1.O=S(=O)([N-]S(=O)(=O)C(F)(F)F)C(F)(F)F | 0.125 ± 0.01 W/m/K | 0.125 ± 0.01 W/m/K | 0.124 ± 0.01 W/m/K | 0.124 ± 0.01 W/m/K |  |  |  |
| CCCCCCCCCCCCCC[P+](CCCCCC)(CCCCCC)CCCCCC.O=S(=O)([N-]S(=O)(=O)C(F)(F)F)C(F)(F)F | 0.144 ± 0.01 W/m/K | 0.143 ± 0.01 W/m/K | 0.142 ± 0.01 W/m/K | 0.141 ± 0.01 W/m/K | 0.141 ± 0.01 W/m/K | 0.14 ± 0.01 W/m/K | 0.139 ± 0.01 W/m/K |
| CCCCCC[n+]1ccn(C)c1.O=S(=O)([N-]S(=O)(=O)C(F)(F)F)C(F)(F)F | 0.127 ± 0.01 W/m/K | 0.127 ± 0.01 W/m/K | 0.127 ± 0.01 W/m/K | 0.126 ± 0.01 W/m/K | 0.125 ± 0.01 W/m/K | 0.125 ± 0.01 W/m/K | 0.125 ± 0.01 W/m/K |
| CCn1cc[n+](C)c1.O=S(=O)([N-]S(=O)(=O)C(F)(F)F)C(F)(F)F | 0.13 ± 0.01 W/m/K | 0.13 ± 0.01 W/m/K | 0.129 ± 0.01 W/m/K | 0.129 ± 0.01 W/m/K | 0.129 ± 0.01 W/m/K | 0.129 ± 0.01 W/m/K | 0.128 ± 0.01 W/m/K |
| CCCC[N+]1(C)CCCC1.FC(F)(F)C(F)(F)[P-](F)(F)(F)(C(F)(F)C(F)(F)F)C(F)(F)C(F)(F)F | 0.107 ± 0.01 W/m/K | 0.106 ± 0.01 W/m/K | 0.106 ± 0.01 W/m/K | 0.105 ± 0.01 W/m/K | 0.105 ± 0.01 W/m/K | 0.105 ± 0.01 W/m/K | 0.105 ± 0.01 W/m/K |
| CCCCCCCCCCn1cc[n+](C)c1.O=S(=O)([N-]S(=O)(=O)C(F)(F)F)C(F)(F)F | 0.132 ± 0.01 W/m/K | 0.131 ± 0.01 W/m/K | 0.13 ± 0.01 W/m/K | 0.129 ± 0.01 W/m/K | 0.128 ± 0.01 W/m/K | 0.128 ± 0.01 W/m/K | 0.128 ± 0.01 W/m/K |
| CCCC[n+]1ccn(C)c1.O=S(=O)([N-]S(=O)(=O)C(F)(F)F)C(F)(F)F | 0.128 ± 0.01 W/m/K | 0.127 ± 0.01 W/m/K | 0.127 ± 0.01 W/m/K | 0.126 ± 0.01 W/m/K | 0.125 ± 0.01 W/m/K | 0.124 ± 0.01 W/m/K | 0.124 ± 0.01 W/m/K |
| CCCCCCCCCCCCCC[P+](CCCCCC)(CCCCCC)CCCCCC.[Cl-] [trihexyl(tetradecyl)phosphonium chloride] | 0.161 ± 0.01 W/m/K | 0.16 ± 0.01 W/m/K | 0.159 ± 0.01 W/m/K | 0.157 ± 0.01 W/m/K | 0.157 ± 0.01 W/m/K | 0.156 ± 0.01 W/m/K | 0.155 ± 0.01 W/m/K |
